Experimental data taken from ChEMBL document CHEMBL1132868, “A new class of highly cytotoxic diketopiperazines” (Bioorg Med Chem Lett, 2000).
pIC50: −log10 of the molar value.

Test system: Nucleic Acid
Assay: Compound was evaluated for DNA (poly[dA]-poly[dT]) binding affinity
Type: nucleic-acid assay
Conditions: not given

`CN(C)CCCC(=O)Nc1ccc2c(c1)cc1c(=O)n3c(cc4cc(NC(=O)CCCN(C)C)ccc43)c(=O)n12` was tested, and the K was 203000.

Test system: L1210
Assay: The compound was tested for cytotoxic activity using standard L1210 cell based cytotoxicity assay
Type: functional
Conditions: Mus musculus

Compared with `CC(C)(C)OC(=O)Nc1ccc2c(c1)cc1c(=O)n3c(cc4cc(NC(=O)OC(C)(C)C)ccc43)c(=O)n12`, `CN(C)CCCC(=O)Nc1ccc2c(c1)cc1c(=O)n3c(cc4cc(NC(=O)CCCN(C)C)ccc43)c(=O)n12` is 2.93 log units higher in pIC50: 4.54 for the first, 7.47 for the second.

Compared with `Nc1ccc2c(c1)cc1c(=O)n3c(cc4cc(N)ccc43)c(=O)n12`, `CN(C)CCCC(=O)Nc1csc(C(=O)Nc2ccc3c(c2)cc2c(=O)n4c(cc5cc(NC(=O)c6csc(NC(=O)CCCN(C)C)n6)ccc54)c(=O)n23)n1` is 0.88 log units higher in pIC50: 4.52 for the first, 5.40 for the second. The second is the more potent here.

`CN(C)CCCC(=O)Nc1ccc(C(=O)Nc2ccc3c(c2)cc2c(=O)n4c(cc5cc(NC(=O)c6ccc(NC(=O)CCCN(C)C)cc6)ccc54)c(=O)n23)cc1` showed a pIC50 of 5.15.
